The results in this text go back to patent publication US20150306096A1, “8'-HYDROXY-DIHYDROERGOTAMINE COMPOUNDS AND COMPOSITIONS” (MAP Pharmaceuticals, Inc., priority 2012, published 2015).

The structures appear in SMILES notation.

Holding throughout (assay): Radioligand competition binding and kinetics, CHO-K1 membranes
Background: Loss of bound radioactivity is the signal in a displacement assay; it reports binding, not function.

One test has as its target T1, human 5-HT1D receptor (Homo sapiens, UniProt P28221).
T1 construct: purchased Euroscreen; host or cells: CHO-K1
The following applies: 5-HT1D. The method, then:
(§1) For kinetics of radioligand competitive binding, serial dilutions were performed from master solution in 100% DMSO to obtain intermediate concentrations 200-fold higher than the concentrations to be tested. Each test sample was diluted 100-fold in the assay buffer and dispensed into the test plate.
5-HT1D Radioligand Binding Assay
Assay buffer: 50 mM Tris (pH 7.4), 4 mM CaCl2, 0.1% ascorbic acid
Washing buffer: 50 mM Tris (pH 7.4)
Membrane: recombinant CHO-K1-5-HT1D membranes thawed on ice and diluted in assay buffer (10 μg/well)
(§2) Ligand: 5-HT (Sigma, H-9523)
Radioligand: [^3H]-CT (Perkin Elmer, TRK1038, diluted in assay buffer for a final concentration of 0.5 nM) Filter plate: GF/B Unifilter plate (Perkin Elmer, 6005177) presoaked in 0.5% PEI for 2 hours at RT.
(§3) Determination of the Kon constant. Radioligand association kinetics on each receptor were performed by adding in the wells of a 96 well plate 50 μL of radioligand and 50 μL of membrane extracts. The samples were incubated for the times reported in Table 3 below at a temperature optimized for each receptor and filtered over a filter plate. After washing the filters 5 times with 0.5 mL of ice-cold washing buffer, 50 μL of Microscint 20 (Packard) were added to the filters and the plates were incubated 15 min on an orbital shaker and then counted for 1 min/well. This allowed determination of the kobs for each radioligand. Association kinetics were performed at 5 different radioligand concentrations optimized for each receptor (see Table 3 below) to determine 5 different kobs. The different kobs were then plotted against the [radioligand] and the K. was calculated using the following equation: kon=(kobs−koff)[radioligand].
(§4) Determination of the Koff constant. Radioligand dissociation kinetics on each receptor were performed by adding in the wells of a 96 well plate 45 μL of radioligand and 45 μL of membrane extracts. The samples were incubated as reported in Table 4 below at a temperature optimized for each receptor until binding equilibrium was reached as determined by the association kinetics experiment. Then, 100 μL of cold competitor (reference ligand) were added at a 200 fold excess (final concentration) for the times reported in Table 4 at the optimized temperature. The samples were then filtered over a filter plate. After washing the filters 5 times with 0.5 mL of ice-cold washing buffer, 50 μL of Microscint 20 (Packard) were added to the filters and the plates were incubated 15 min on an orbital shaker and then counted for 1 min/well. This allowed determination of the koff for each radioligand.
Determination of IC50 and Ki constant for each test compound. Radioligand competition binding on each receptor were performed by adding in the wells of a 96 well plate […] of test compound at increasing concentration as reported in Table 5 below, 25 μL of radioligand and 25 μL of membrane extracts. The samples were incubated for 60 min (or 4 hours for a second experiment on 5-HT2B receptors) at a temperature optimized for each receptor and then filtered over a filter plate. After washing the filters 5 times with 0.5 mL of ice-cold washing buffer, 50 μL of Microscint 20 (Packard) were added to the filters and the plates were incubated 15 min on an orbital shaker and then counted for 1 min/well. The test compounds were tested in duplicate at the nanomolar concentrations reported below in Table 5.
Determination of kon and koff constants for each test compound. Each compound was first assessed in a pilot experiment to evaluate its effect on the kinetic binding of each receptor-radioligand pair. These pilot experiments were performed at on compound concentration and were composed of 10 time-points measurements in duplicate (2, 5, 10, 20, 30, 45, 60, 90, 120 and 150 minutes).

Another test addresses T2, human 5-HT1A receptor (Homo sapiens, UniProt P08908).
T2 construct: purchased Euroscreen; host or cells: CHO-K1
T2 sequence (P08908 1-422): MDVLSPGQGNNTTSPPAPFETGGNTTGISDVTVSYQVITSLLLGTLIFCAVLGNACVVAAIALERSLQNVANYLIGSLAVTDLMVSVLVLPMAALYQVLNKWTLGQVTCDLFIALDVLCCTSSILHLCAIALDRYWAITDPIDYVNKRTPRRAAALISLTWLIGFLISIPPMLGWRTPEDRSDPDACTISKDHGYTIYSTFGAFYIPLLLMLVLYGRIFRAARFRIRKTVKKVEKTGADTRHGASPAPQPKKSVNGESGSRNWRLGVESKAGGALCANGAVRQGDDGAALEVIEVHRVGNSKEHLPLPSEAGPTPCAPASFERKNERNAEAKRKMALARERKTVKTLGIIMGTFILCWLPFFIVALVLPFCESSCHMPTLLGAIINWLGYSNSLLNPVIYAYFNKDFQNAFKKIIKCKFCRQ
The settings on record: 5-HT1A. The method, then:
as §1
as §3, with “Association kinetics were performed at 5 different radioligand concentrations optimized for each receptor (see Table 3 below) to determine 5 different kobs.” left out
Determination of the Koff constant. […] The samples were incubated as reported in Table 4 below at a temperature optimized for each receptor until binding equilibrium was reached as determined by the association kinetics experiment. […] After washing the filters 5 times with 0.5 mL of ice-cold washing buffer, 50 μL of Microscint 20 (Packard) were added to the filters and the plates were incubated 15 min on an orbital shaker and then counted for 1 min/well. […]
(§5) Determination of IC50 and Ki constant for each test compound. […] After washing the filters 5 times with 0.5 mL of ice-cold washing buffer, 50 μL of Microscint 20 (Packard) were added to the filters and the plates were incubated 15 min on an orbital shaker and then counted for 1 min/well. […]
(§6) Determination of kon and koff constants for each test compound. Each compound was first assessed in a pilot experiment to evaluate its effect on the kinetic binding of each receptor-radioligand pair. […]

The target of a further test is T3, human 5-HT2B receptor (Homo sapiens, UniProt P41595).
T3 construct: purchased Euroscreen; host or cells: CHO-K1
T3 sequence (P41595 whole entry): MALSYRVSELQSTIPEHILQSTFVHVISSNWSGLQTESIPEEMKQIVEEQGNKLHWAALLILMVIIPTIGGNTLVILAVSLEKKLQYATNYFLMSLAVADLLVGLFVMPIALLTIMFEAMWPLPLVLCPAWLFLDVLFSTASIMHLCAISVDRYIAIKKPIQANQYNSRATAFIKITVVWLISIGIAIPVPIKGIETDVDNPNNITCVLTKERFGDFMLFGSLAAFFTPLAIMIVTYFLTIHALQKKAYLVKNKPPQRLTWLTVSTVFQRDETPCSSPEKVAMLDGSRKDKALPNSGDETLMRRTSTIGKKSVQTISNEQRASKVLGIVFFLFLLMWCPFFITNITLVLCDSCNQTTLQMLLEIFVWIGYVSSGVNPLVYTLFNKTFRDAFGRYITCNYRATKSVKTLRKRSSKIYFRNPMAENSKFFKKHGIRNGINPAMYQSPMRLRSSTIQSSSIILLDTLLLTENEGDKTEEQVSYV
The settings on record: 5-HT2B. Here is the method:
as §1, §2, §3, §4, §5, §6

T1 sequence (P28221 whole entry): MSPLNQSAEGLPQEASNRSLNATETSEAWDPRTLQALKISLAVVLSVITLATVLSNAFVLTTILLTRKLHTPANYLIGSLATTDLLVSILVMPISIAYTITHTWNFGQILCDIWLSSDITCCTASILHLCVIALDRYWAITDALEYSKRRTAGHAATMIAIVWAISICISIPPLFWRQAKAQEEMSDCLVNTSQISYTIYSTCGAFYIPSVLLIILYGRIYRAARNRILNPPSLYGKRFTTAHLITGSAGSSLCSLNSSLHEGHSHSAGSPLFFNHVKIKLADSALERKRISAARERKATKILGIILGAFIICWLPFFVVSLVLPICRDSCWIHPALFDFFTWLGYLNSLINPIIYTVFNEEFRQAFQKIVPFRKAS

One may read the IC50 as the point on the concentration scale where inhibition reaches its midpoint. With `CNS(=O)(=O)Cc1ccc2[nH]cc(CCN(C)C)c2c1` [Sumatriptan, sumatriptan], the figures for the “Avg Dissociation half-life” value on human 5-HT1D receptor, at human 5-HT1A receptor and on human 5-HT2B receptor were 5.4 min, 65.4 min and 22.2 min, respectively. Besides, the half-inhibitory concentration (IC50) on human 5-HT2B receptor ([3H]-Mesulergine, read-out: IC50 from binding assay) was 19.9 µM.
